Results reported in US10202354B2, “Therapeutic compounds and uses thereof” (GENENTECH, INC., priority 2015, dated 2019).

Target: Full length KDM2B (Homo sapiens (Human), UniProt Q8NHM5)
Assay: KDM2B TR-FRET Assay for Determining Inhibitor IC50
Type: biochemical
Conditions: TR-FRET (HTRF), biotin-H3K36me2 peptide substrate
From the text: KDM2B TR-FRET Assay for Determining Inhibitor IC50
The KDM2B TR-FRET Assay described above represents an additional embodiment of the invention.

Chain of Full length KDM2B (Q8NHM5 whole entry): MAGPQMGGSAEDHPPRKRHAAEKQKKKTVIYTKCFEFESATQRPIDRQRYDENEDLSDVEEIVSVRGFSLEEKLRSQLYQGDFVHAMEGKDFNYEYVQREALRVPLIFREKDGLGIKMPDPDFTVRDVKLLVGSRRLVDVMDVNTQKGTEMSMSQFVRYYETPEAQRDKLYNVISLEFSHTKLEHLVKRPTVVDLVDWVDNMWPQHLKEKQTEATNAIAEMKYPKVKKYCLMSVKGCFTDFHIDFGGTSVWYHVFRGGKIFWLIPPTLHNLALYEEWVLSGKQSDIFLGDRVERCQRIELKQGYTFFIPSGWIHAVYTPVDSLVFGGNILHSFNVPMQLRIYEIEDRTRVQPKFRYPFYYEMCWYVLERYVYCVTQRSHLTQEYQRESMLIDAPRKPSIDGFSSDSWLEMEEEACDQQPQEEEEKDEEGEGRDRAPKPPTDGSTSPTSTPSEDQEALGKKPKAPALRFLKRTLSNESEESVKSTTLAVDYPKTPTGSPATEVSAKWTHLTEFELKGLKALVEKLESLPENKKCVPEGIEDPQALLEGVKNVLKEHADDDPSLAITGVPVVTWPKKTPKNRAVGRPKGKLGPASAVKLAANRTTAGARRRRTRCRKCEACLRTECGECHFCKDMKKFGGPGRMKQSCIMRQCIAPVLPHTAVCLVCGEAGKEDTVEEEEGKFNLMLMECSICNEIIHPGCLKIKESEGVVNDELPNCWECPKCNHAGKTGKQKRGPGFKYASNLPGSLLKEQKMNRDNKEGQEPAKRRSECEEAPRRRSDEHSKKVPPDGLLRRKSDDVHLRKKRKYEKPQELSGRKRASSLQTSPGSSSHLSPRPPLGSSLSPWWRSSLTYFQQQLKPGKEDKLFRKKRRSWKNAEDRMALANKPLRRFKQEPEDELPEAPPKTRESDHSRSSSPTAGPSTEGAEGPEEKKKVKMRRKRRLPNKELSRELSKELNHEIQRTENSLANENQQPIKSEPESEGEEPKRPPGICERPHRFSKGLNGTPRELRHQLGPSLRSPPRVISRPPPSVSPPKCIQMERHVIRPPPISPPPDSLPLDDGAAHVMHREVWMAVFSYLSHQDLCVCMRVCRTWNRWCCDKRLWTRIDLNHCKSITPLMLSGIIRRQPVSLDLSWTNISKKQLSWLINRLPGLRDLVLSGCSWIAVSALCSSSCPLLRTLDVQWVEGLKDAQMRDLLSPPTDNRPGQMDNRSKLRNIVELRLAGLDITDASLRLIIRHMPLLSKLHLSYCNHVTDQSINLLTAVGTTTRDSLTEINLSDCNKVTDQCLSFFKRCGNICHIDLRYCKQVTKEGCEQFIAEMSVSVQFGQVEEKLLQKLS

Compound | IC50
CCN1CCN(C2=NCCN2S(=O)(=O)c2ccccc2Cl)CC1 [Example 114, 1-[1-(2-chlorophenyl)sulfonyl-4,5-dihydroimidazol-2-yl]-4-ethyl-piperazine] | 2.81 nM
CCN1CCN(C2=NCCN2S(=O)(=O)c2cccc(OC)c2)CC1 [Example 115, 1-ethyl-4-[1-(3-methoxyphenyl)sulfonyl-4,5-dihydroimidazol-2-yl]piperazine] | 3.57 nM
CCN1CCN(C2=NCCN2S(=O)(=O)c2ccc(OC)cc2)CC1 [Example 116, 1-ethyl-4-[1-(4-methoxyphenyl)sulfonyl-4,5-dihydroimidazol-2-yl]piperazine] | 5.45 nM
CCN1CCN(C2=NCCN2S(=O)(=O)c2ccc(C)cc2)CC1 [Example 117, 1-ethyl-4-[1-(p-tolylsulfonyl)-4,5-dihydroimidazol-2-yl]piperazine] | 3.76 nM
CCN1CCN(C2=NCCN2S(=O)(=O)c2c(Cl)cccc2Cl)CC1 [Example 118, 1-[1-(2,6-dichlorophenyl)sulfonyl-4,5-dihydroimidazol-2-yl]-4-ethyl-piperazine] | 1.02 nM
CCN1CCN(C2=NCCN2S(=O)(=O)c2cnn(CC)c2C)CC1 [Example 119, 1-ethyl-4-[1-(1-ethyl-5-methyl-pyrazol-4-yl)sulfonyl-4,5-dihydroimidazol-2-yl]piperazine] | 11.4 nM
CCN1CCN(C2=NCCN2S(=O)(=O)c2cccc3nonc23)CC1 [Example 120, 4-[[2-(4-ethylpiperazin-1-yl)-4,5-dihydroimidazol-1-yl]sulfonyl]-2,1,3-benzoxadiazole] | 13.3 nM
